Results as given in PMC5905120, “An innovative immunotherapeutic strategy for ovarian cancer: CLEC10A and glycomimetic peptides” (Journal for Immunotherapy of Cancer, 2018).
Bridges are numbered along the chain shown (N, C = ends). Roman numbers before positions name the chains, in order. Where no end group is shown, it is not given here.

Assays:
[1] = tested on: peritoneal cells of C57BL/6 mice; test: Peritoneal immune cell populations by flow cytometry, C57BL/6 mice; format: in vivo, mouse (C57BL/6)
Method: Healthy C57BL/6 male mice, 10 weeks old, were injected subcutaneously with peptides on alternate days. Peritoneal cells were isolated from mice 24 h after dosing by injecting ice cold PBS (containing 3% FBS) into the peritoneal cavity, gently massaging the abdomen, and then collecting the fluid, which was transferred into K2EDTA-treated tubes for evaluation of specific biomarkers. Cells from three mice in each group were pooled, counted and divided among FACS tubes (1 × 10^6 cells per tube). Cells were washed once in PBS containing 3% FBS, then stained with 0.25 to 1 μg of fluorescently conjugated antibody per 10^6 cells in 100 μL of buffer as recommended by the manufacturer (Table 2).
Cells were incubated with the antibodies for 30 min at 4 °C in the dark. Following staining, the cells were washed two times with PBS/3% FBS and immediately analyzed with a MACSQuant flow cytometer (Miltenyi Biotech, Inc., San Diego, CA). Compensation was performed using single stain tubes for each color present in the analysis as well as an unstained control sample. Collection of flow cytometric data and analysis with FlowJo software, version 10.0.6 (FlowJo, LLC, Ashland, OR) were performed by Biomodels LLC (Watertown, MA).
To examine whether increases occurred in mature immune cells, peritoneal cells from Balb/c and C57BL/6 mice were analyzed by flow cytometry after cells were stained with the markers listed in Table 2. […] To explore this observation more extensively, svL4 or sv6D was injected into C57BL/6 mice on day 0, 2 or 4. Peritoneal cells were examined by flow cytometry 24 h after each injection. Shown in Fig. 5 are results expressed as cell counts for F4/80 CD11b CD86 (mature, active macrophages); CD11c (DCs); CD11c CD 86 (activated DCs); CD4 CD69 (activated T cells); CD8 CD69 (activated cytotoxic T cells); NK1.1 CD3^+ CD69 (activated NKT cells); NK1.1 CD3^− CD69 (activated NK cells); CD19 (B cells); and CD19 CD73 CD80 CD273 (memory B cells). The numbers of these mature, activated cells continued to increase with each injection.
Fig. 5 Expansion of peritoneal cells in C57BL/6 mice. Mice were injected subcutaneously at a dose of 1 nmole/g body weight of svL4, sv6D or svC1. Cells in each population recovered in a peritoneal lavage are expressed as cell counts (in thousands). Cells from three mice in each treatment group were pooled for analysis. The number of cells in each population was normalized to the average recovery of total cells from all groups. For each cell type, the left-hand, middle and right-hand set of bars represent samples from mice treated with svL4, sv6D or svC1, respectively. Mice were injected on days 0, 2 and 4, and cells were collected 24 h after each injection. Day 1, open bar; day 3, grey bar; day 5, black bar. Populations that express activation markers are indicated by an asterisk

[2] = tested on: monocytes in the peritoneal cavity of RAG^—/— mice; test: Peritoneal monocyte response in RAG^—/— mice; format: in vivo, mouse (RAG^—/—); conditions: s.c. injection (data not shown)
Method: To determine whether the target(s) for svL4 is located on lymphocytes, with subsequent cross-talk signaling to achieve activation of monocytes, an experiment was performed in which svL4 was injected into RAG^—/— mice, which lack activity of rag, the recombination activation gene. The ability to perform recombination to generate antigen-specific antibodies by V(D)J recombination is required for B and T cell precursors to produce functional antigen receptors on their surface, and without a functional rag gene these cells undergo apoptosis.

[3] = Antigenicity assay in mouse sera; format: in vivo; conditions: 1 nmole/g s.c., alternate days for 3 months; sera of 8 treated mice, Fig. 8
Method: The sequence of one arm of svL4 or sv6D was conjugated to keyhole limpet hemocyanin (KLH) and injected into rabbits at two week intervals (total of 3 injections) (New England Peptide, Inc., Gardner, MA). Two weeks after the final injection, sera were prepared. Mice were injected with a peptide every other day over a period of 3 months (total ~ 45 injections), blood was then collected by cardiac puncture and sera were prepared. Rabbit serum was diluted 1:10, whereas mouse serum was diluted 1:1 or 1:5 with PBS containing 0.05% Tween-20 (PBST). Sera were incubated in microtiter wells coated with protein A/G (Pierce) for 90 min. The wells were washed three times with PBST, and then incubated with 50 μL of 1 μM biotinylated svL4 or sv6D for 1 h. The wells were washed four times with PBST, incubated 1 h with 1 μg/mL streptavidin-peroxidase conjugate, and washed four times with PBST. Peroxidase activity was assayed as above under Binding Assays.
Fig. 8 Test for antigenicity of svL4 and sv6D. Anti-sera were generated in rabbits against KLH-conjugates of the sequences of svL4 or sv6D and diluted 1:10. Mouse sera were collected after alternate-day injections of svL4 over 3 months, diluted 1:1 with PBS and added to protein-A/G-coated wells. Biotinylated svL4 or sv6D was added to wells and bound peptide was detected with a streptavidin-peroxidase conjugate. […]

## I: VQATQSNQHTPRGGGSKK-NH2 / II: VQATQSNQHTPRGGGSK / III: VQATQSNQHTPRGGGS / IV: VQATQSNQHTPRGGGS (amide I:17-IV:C, I:18-II:C, II:17-III:C) [svL4]
[1]; 0.05 nmole/g svL4
  decrease of CD90.2^+ cells as small-cell population increased: more than 50%
[1]; 1 nmole/g s.c. on days 0, 2, 4, Fig. 5
  response of CD19^+ B cells vs. sv6D: responded more strongly to svL4
[1]; 1 nmole/g s.c., single vs. second injection, 24 h
  increase in mature immune cells: a significant increase occurred only after the second injection
[1]; 0.1 or 0.5 nmole/g svL4
  Lin/CD90.2 status of small cells: nearly all cells were Lin^Neg and CD90.2^Neg
[1]; within 24 h after an injection (data not shown)
  increase in mature immune cells: Essentially no increase
[1]; within 24 h after injection, healthy C57BL/6, Fig. S1a
  small cells (low FSc, low SSc): several-fold increase
[2]
  response of peritoneal monocytes vs. C57BL/6: essentially the same as that in C57BL/6 mice
[3]
  antibodies that bind the peptides in mouse sera: negative
